≈ marks a conversion by molar mass, not a printed value.
Test system: Porphyromonas gingivalis
Assay: Porphyromonas gingivalis overnight culture, colony count on blood agar vs control
Assay type: cell-based
Procedure: After the overnight culture, the medium was diluted 1:10000 times, 5 μl of the diluted culture was applied to blood agar plate and cultured overnight. Calculated the number of colonies on the plates and compared with the control group to obtain the percentage of inhibition.

In the case of CCCCC/C=C\C/C=C\C/C=C\CCCCC(=O)O [omega-6 fatty acids (GLA), γ-linolenic acid], the IC50 (Porphyromonas gingivalis, overnight culture at 37° C, colonies counted vs control, read-out: IC50 / final concentration inhibiting 50% of Porphyromonas gingivalis growth) is reported as roughly 5 µg/mL (≈ 18 µM) and the “inhibition of growth of Porphyromonas gingivalis” value (final concentration of 1 μg/ml) is reported as “significantly inhibit the growth”.

From patent US20120213714A1, “Method and compositions as an adjunct for the prevention and treatment of periodontal disease” (priority 2011, published 2012)
